In patent US10913757B2, “Hydroxycinnamic derivatives, methods and uses thereof” (UNIVERSIDADE DO PORTO, priority 2016, dated 2021):
Marks after values point to notes of the source that are not given here.

Assays:
[1] = DPPH radical scavenging activity (TAC assay); assay type: biochemical; conditions: ethanol, absorbance 515 nm
Text: (§1) In an embodiment, the AntiOxCINs antioxidant ranking activity hierarchy was established by in vitro non-cell methods. The selected total antioxidant capacity (TAC) assays (DPPH, ABTS and GO) involved the spectrophotometric measurement of the radical absorbance decrease as a result of an in situ radical deactivation by an antioxidant. Compounds with higher antioxidant activity display lower IC50 values. […] This decrease was attenuated/ameliorated by the increment of the spacer length and/or the introduction of additional hydroxyl group in the aromatic ring.
(§2) The radical scavenging activity of AntiOxCINs was evaluated by means of total antioxidant capacity assays based on DPPH., ABTS.^+ and GO. radicals. All these methods involved the spectrophotometric measurement of the absorbance decrease resulting from radical (DPPH., ABTS.^+ or GO.) deactivation with an antioxidant. The results were expressed in IC50, which is defined as the minimum antioxidant concentration necessary to reduce the amount of radical by 50%. Antioxidant assays were performed in a multiplate reader (Powerwave XS Microplate Reader) of Bio-Tech instruments.
In an embodiment, the DPPH. radical scavenging activity was performed as follows: solutions of the test compounds with increasing concentrations (range between 0 μM and 500 μM) were prepared in ethanol. A DPPH′ ethanolic solution (6.85 mM) was also prepared and then diluted to reach the absorbance of 0.72±0.02 at 515 nm. Each compound solution (20 μL) was added to 180 μL of DPPH′ solution in triplicate, and the absorbance at 515 nm was recorded minutely over 45 minutes. […] Dose-response curves were established for the determination of IC50 values. Data are means±SEM of three independent experiments.

[2] = ABTS radical cation scavenging activity (TAC assay); assay type: biochemical; conditions: ethanol
Text: as §1, §2
In an embodiment, the ABTS.^+ scavenging activity was evaluated as follows: ethanolic solutions of the test compounds with increasing concentrations (range between 10 μM and 500 μM) were prepared. ABTS.^+ radical cation solution was obtained by addition of 150 mM aqueous potassium persulfate solution (163 μL) to 10 mL of 7 mM aqueous ABTS solution followed by storage in the dark at room temperature for 16 h (2.45 mM final concentration). The solution was then diluted in ethanol to reach the absorbance of 0.72±0.02. After addition of the compound (20 μL), in triplicate, to ABTS.^+ solution (180 μL) the spectrophotometric measurement was carried out each minute over 15 minutes. […] Dose-response curves were established for the determination of IC50 values. Data are means±SEM of three independent experiments.

[3] = Redox properties by differential pulse and cyclic voltammetry; assay type: physicochemical
Experimental: In an embodiment, and as an example, AntiOxCINs redox properties were evaluated (Table 1). Redox potentials are correlated with the ability of an antioxidant to donate a hydrogen atom and/or an electron to a free radical.
However, for pyrogallol derivatives (AntiOxCIN4, AntiOxCIN5 and AntiOxCIN7), a significant decrease in redox potentials was observed (Ep=0.034-0.057 V) (Table 1).
The voltammograms presented a diffusion peak and an adsorption post-peak at a more anodic potential correspondent to the oxidation of dissolved and adsorbed forms of the compounds, respectively. The oxidation waves can be related to the oxidation process of the pyrogallol moiety. The cyclic voltammograms also show the presence of two overlapped anodic peaks. The anodic peaks appeared to correspond to irreversible processes as any distinct reduction wave was not seen on the cathodic sweep. The existence of the additional phenolic group in the pyrogallol systems, when compared with the catechol ones, seems to influence the stabilization of the semiquinone intermediate and in turn the oxidative mechanism.
(§3) In an embodiment, the electrochemical analytical data was obtained using a computer controlled potentiostat Autolab PGSTAT302N (Metrohm Autolab, Utrecht, Netherlands). Generally, cyclic voltammetry (CV) data was acquired at a scan rate of 50 mVs^−1. Differential pulse voltammetry (DPV) results were acquired at a step potential of 4 mV, pulse amplitude of 50 mV and scan rate of 8 mVs^−1. The electrochemical signals were monitored by the General Purpose Electrochemical System (GPES) version 4.9, software package. All electrochemical experiments were performed at room temperature in an electrochemical cell that was placed in a Faraday cage in order to minimize the contribution of background noise to the analytical signal.
(§4) In an embodiment, the process of evaluation of AntiOxCINs redox properties was conducted as follows: stock solutions of each compound (10 mM) were prepared by dissolving the appropriate amount in ethanol. The voltammetric working solutions were prepared in the electrochemical cell, at a final concentration of 0.1 mM. The […] supporting electrolyte was prepared by diluting […] to 100 mL. Voltammetric data was acquired in a three-electrode system consisting of a glassy carbon electrode (GCE, d=2 mm) as working electrode, a counter electrode of platinum wire and a saturated Ag/AgCl reference electrode. In an embodiment, the evaluation of AntiOxCINs lipophilic properties was performed as follows: the electrochemical cell was a four-electrode system with arrays of micro liquid-liquid interfaces (μlTIES) containing two Ag/AgCl reference electrodes and two counter electrodes of Pt, one in each phase. The microporous membrane was sealed with a fluorosilicone sealant (Dow Corning 730) onto a glass cylinder which was filled with 4.0 mL of the aqueous phase, where the aliquots of AntiOxCINs solutions were added. The membrane was then immersed into the organic phase contained in the cell. The organic phase reference solution (a 2 mM BTPPACI+2 mM NaCl aqueous solution) was mechanically stabilized The aqueous supporting electrolyte solution was a Tris-HCl buffer 10 mM pH 7.0.

[4] = GO radical scavenging activity (TAC assay); assay type: biochemical; conditions: ethanol, absorbance 428 nm
Text: as §1, §2
In an embodiment, the GO′ scavenging activity was evaluated as follows: solutions of test compounds with concentrations from 5 μM to 75 μM were prepared in ethanol. An ethanolic solution of 5 mM GO′ was prepared and diluted to reach the absorbance of 1.00±0.02 at 428 nm. The addition (20 μL) in triplicate of compound solution to GO. solution (180 μL) was followed by absorbance measurement at 428 nm over 30 minutes, in the dark, at room temperature. […] Dose-response curves were established for the determination of IC50 values. Data are means±SEM of three independent experiments.

[5] = Lipophilic properties by electrochemistry at ITIES (transfer potential); assay type: physicochemical; conditions: aqueous phase to 1,6-dichlorohexane, DPV, C=0.32 mM
Experimental: In an embodiment, AntiOxCINs lipophilic properties were evaluated at physiological pH by electrochemistry. The used technique is often used to mimic the transfer of ionic drugs through biological membranes as the process occurs at the interface between two immiscible electrolyte solutions (ITIES). The transfer potential (Etr) at which the ionic drug, initially present in the aqueous phase (C=0.32 mM), is transferred to the 1,6-dichlorohexane (DCH) phase is measured by differential pulse voltammetry (DPV). In the ITIES model, the transfer potential (Etr) becomes less positive with the increasing of the drug lipophilic character.
as §3, §4

[6] = tested on: mouse myoblast C2C12 cells; conditions: cited from earlier work

## CS(=O)(=O)[O-].O=C(/C=C/c1ccc(O)c(O)c1)NCC[P+](c1ccccc1)(c1ccccc1)c1ccccc1 [AntiOxCIN1, reference compound]
[1]
  IC50: 35.4 µM
[2]
  IC50: 33.3 µM
[3]; cyclic voltammetry, physiological pH
  reversibility of the oxidation reaction: reversible reaction
[3]; physiological pH (7.4), voltammetry, listed as AntiOxClN1
  Ep (redox potential): 0.166^a) V
[4]
  IC50: 4.5 µM
[5]
  Etr (transfer potential): 0.572 V
[6]
  protection against oxidative stress stressors (H2O2, linoleic acid-hydroperoxides): protected
